{
  "source": "patent US12398109B2",
  "about": "“2-amino-2-(1,2,3-triazole-4-yl)propane-1,3-diol derivative of novel compound for directly inhibiting ASM activity, and use thereof” (KYUNGPOOK NATIONAL UNIVERSITY INDUSTRY-ACADEMIC COOPERATION …, priority 2018, dated 2025)",
  "key": {"[1]": {"test": "Brain distribution after oral administration in normal mice", "format": "in vivo, mouse", "conditions": "oral 10 mg/kg"}, "[2]": {"test": "Stability in mouse liver microsomes", "format": "in vitro ADME"}, "[3]": {"test": "Stability in human liver microsomes", "format": "in vitro ADME"}, "[4]": {"test": "Pharmacokinetic test in blood after oral or intravenous administration in normal mice", "conditions": "mouse, 10 mg/kg"}, "amyloid-β deposition": {"test_system": "amyloid-β deposition", "test": "Amyloid-β deposition in medulla and hippocampus of APP/PS1 mouse (ThioS, Aβ40, Aβ42 staining)", "format": "in vivo", "conditions": "100 mg/kg/day", "procedure": "In order to confirm whether the inhibition of ASM activity by administration of the ASM inhibitory compounds has an effect on Alzheimer's lesions, first, the medulla and hippocampus regions of the mouse were stained with Thioflavin S (ThioS) according to a known method to confirm protofibril amyloid-β deposition. In addition, immunofluorescence staining of Aβ40 and Aβ42 was performed to confirm the amyloid-β deposition."}, "APP/PS1 mouse [5]": {"test_system": "APP/PS1 mouse", "test": "Morris Water Maze test in APP/PS1 mouse", "format": "in vivo", "conditions": "compared to SCNPA101 or FTY720", "procedure": "(§1) In order to confirm a potential effect on learning and memory, a Morris Water Maze (MWM) test was performed. In the MWM, the mouse learned a task 4 times a day for 10 days, a platform was removed on day 11, and aprobe trial was performed. To evaluate activity and anxiety, an open field test and a dark and light test were performed. In the open field test, the mouse was placed in a quadrangular box for 10 minutes and then overall activity and a time spent to move around a wall side and a center were measured. In the dark and light test, the mouse was placed in a quadrangular box consisting of a dark box and a light box for 10 minutes, and a time staying in each box, the number of reciprocating the boxes, and a time to first enter into a light box were measured."}, "TNF-a, IL-1b, IL-6": {"test_system": "TNF-a, IL-1b, IL-6", "test": "mRNA expression of inflammatory cytokines in brain of APP/PS1 mouse (real-time quantitative PCR)", "format": "in vivo", "conditions": "SCNPA 100 mg/kg/day, FTY720 1 mg/kg/day", "procedure": "A real-time quantitative PCR method was used to measure the expression levels of inflammatory response-related cytokines (TNF-α, IL-1b, and IL-6). Total RNA was extracted from the brain tissue using an RNeasy Plus mini kit (Qiagen, Korea, Ltd), and cDNA was synthesized from 5 μg of total RNA using a kit from Clontech Co., Ltd. (Mountain View, CA). In addition, by using a Corbett research RG-6000 real-time PCR instrument, real-time quantitative PCR was performed by setting 95° C., 10 min; 95° C., 10 sec; 58° C., 15 sec; 72° C., 20 sec as one cycle and repeating 40 cycles."}, "S1P": {"test_system": "S1P", "test": "S1P level in fibroblasts", "conditions": "normal or Alzheimer's patient fibroblasts, 10 μM", "protocol": "(§2) Human fibroblast lines (normal and PS1) were obtained from Coriell Institute and cultured in a DMEM containing 15% FBS at 37° C. and 5% CO2 and used.\n(§3) To measure a concentration level of Sphk, 3 μl of the fibroblast sample was mixed with a Sphk activity buffer and stored at 37° C. Subsequently, 54 μl of ethanol was added and the mixture was centrifuged after terminating a hydrolysis reaction. After 30 μl of a supernatant was transferred to a glass vial, 5 μl of the supernatant was applied to a UPLC system. Each Sphk concentration level was quantified using a UPLC system by comparing the Sphk concentration level with NBD bound to sphingosine and S1P. For extraction and quantification of Ceramide and S1P, lipids were extracted from the samples by a known method, and the dried lipid extract was resuspended in 25 μl of 0.2% Igepal CA-630 (Sigma-Aldrich), and the concentration levels of Ceramide and S1P were quantified using the UPLC system."}, "Sphk": {"test_system": "Sphk", "test": "Sphk activity in fibroblasts", "conditions": "normal or Alzheimer's patient fibroblasts, 10 μM", "protocol": "as §2, §3"}, "S1P receptor 1 (S1PR1)": {"test_system": "S1P receptor 1 (S1PR1)", "test": "S1PR1 expression in fibroblasts (Western blot)", "conditions": "normal or Alzheimer's patient fibroblasts, 10 μM", "protocol": "Human fibroblast lines (normal and PS1) were obtained from Coriell Institute and cultured in a DMEM containing 15% FBS at 37° C. and 5% CO2 and used. Thereafter, the cell lines were treated with 10 μM of each of the synthesized ASM inhibitory compounds and FTY720 (Cayman), and then changes in ASM activity, Ceramide, S1P, and S1PR1 were measured.\nProtein expression of S1PR1 was analyzed using Western blotting. First, antibodies against S1PR1 (abcam) and β-actin (Santa Cruz) were used, and densitometric quantification was performed using ImageJ software (US National Institutes of Health)."}, "APP/PS1 mouse [6]": {"test_system": "APP/PS1 mouse", "test": "Open field test and dark & light test in APP/PS1 mouse", "format": "in vivo", "conditions": "SCNPA 100 mg/kg/day, FTY720 1 mg/kg/day", "procedure": "as §1"}, "in vivo": {"test": "in vivo", "conditions": "mouse, po, 10 mg/kg"}, "astrocytes (GFAP)": {"test_system": "astrocytes (GFAP)", "test": "Astrocytes (GFAP) in brain of APP/PS1 mouse", "conditions": "SCNPA 100 mg/kg/day, FTY720 1 mg/kg/day"}},
  "data": [
    {"smiles": "CCCCCCn1cc(C(N)(CO)CO)nn1", "note": "[SCNPA501, 2-amino-2-(1-hexyl-1H-1,2,3-triazol-4-yl)propane-1,3-diol]", "values": [
      {"measurement": "brain distribution values", "setting": "[1]", "result": 1.41},
      {"measurement": "remaining amount after 30 minutes", "setting": "[2]", "result": 98.21, "unit": "%"},
      {"measurement": "metabolic stability (in words)", "setting": "[3]", "result": "high metabolic stability"},
      {"measurement": "bioavailability", "setting": "[4]", "result": 72.3, "unit": "%"}
    ]},
    {"smiles": "CCCCCCCCCn1cc(C(N)(CO)CO)nn1", "note": "[SCNPA201, 2-amino-2-(1-nonanyl-1H-1,2,3-triazol-4-yl)propane-1,3-diol]", "values": [
      {"measurement": "brain distribution values", "setting": "[1]", "result": 3.64},
      {"measurement": "remaining amount after 30 minutes", "setting": "[2]", "result": 95.66, "unit": "%"},
      {"measurement": "metabolic stability (in words)", "setting": "[3]", "result": "high metabolic stability"},
      {"measurement": "Aβ40 deposition", "setting": "amyloid-β deposition", "result": "lowest"},
      {"measurement": "Aβ42 deposition", "setting": "amyloid-β deposition", "result": "lowest"},
      {"measurement": "protofibril Aβ deposition (Thioflavin S)", "setting": "amyloid-β deposition", "result": "lowest"},
      {"measurement": "effect of improving cognition", "setting": "APP/PS1 mouse [5]", "result": "more remarkable"},
      {"measurement": "gene expression of inflammatory cytokines TNF-a, IL-1b, and IL-6", "setting": "TNF-a, IL-1b, IL-6", "result": "restored to a normal level"},
      {"measurement": "bioavailability", "setting": "[4]", "result": 50.3, "unit": "%"}
    ]},
    {"smiles": "CCCCCCCCc1ccc(CCC(N)(CO)CO)cc1", "note": "[FTY720]", "values": [
      {"measurement": "expression of S1P", "setting": "S1P", "result": "reduced"},
      {"measurement": "Sphk activity", "setting": "Sphk", "result": "reduced"},
      {"measurement": "expression of S1PR1", "setting": "S1P receptor 1 (S1PR1)", "result": "reduced"}
    ]},
    {"smiles": "CCCCCCCCCCCCn1cc(C(N)(CO)CO)nn1", "note": "[SCNPA101, 2-amino-2-(1-dodecyl-1H-1,2,3-triazol-4-yl)propane-1,3-diol, reference compound]", "values": [
      {"measurement": "Kp", "setting": "[1]; mouse, brain", "result": 3.61},
      {"measurement": "remaining amount after 30 minutes", "setting": "[2]", "result": 86.36, "unit": "%"},
      {"measurement": "remaining amount after 30 minutes", "setting": "[3]", "result": 7.8, "unit": "%"},
      {"measurement": "activity and anxiety", "setting": "APP/PS1 mouse [6]", "result": "improved"},
      {"measurement": "gene expression of inflammatory cytokines TNF-a, IL-1b, and IL-6", "setting": "TNF-a, IL-1b, IL-6", "result": "restored to a normal level"},
      {"measurement": "bioavailability", "setting": "in vivo", "result": 19.6, "unit": "%"},
      {"measurement": "activity of astrocytes", "setting": "astrocytes (GFAP)", "result": "significantly decreased"}
    ]}
  ]
}
